Assay results reported in article PMC11189555, “Aryl amino acetamides prevent Plasmodium falciparum ring development via targeting the lipid-transfer protein PfSTART1” (Nature Communications, 2024).
Like-named read-outs stand apart in the source and are kept apart here.

Tested on: PopD E3 M-833 resistant clone (PfSTART1 N309K)
Test: Growth inhibition assay (72 h, LDH activity)
Format: cell-based, Plasmodium falciparum
Method in brief: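 Synchronised ring-stage 3D7-derived clones (0.3-0.6% parasitemia, 2% haematocrit) grown 72 h in compound serial dilutions, some with 0, 0.25 or 2.5 mM glucosamine. Growth read as LDH activity after freeze-thaw (Malstat/NBT, A650), normalised to DMSO and uninfected RBC; EC50 from variable-slope log(inhibitor) fit.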

## Cc1cc(Cl)c(S(=O)(=O)N2CCCC2)cc1OCC(=O)NC1CCCCC1 [M-833]
M-833 0.0390625 uM, Pop D-E3 replicate 1
  Normalised to DMSO: 112.377
M-833 0.0390625 uM, Pop D-E3 replicate 3
  Normalised to DMSO: 111.25
M-833 0.078125 uM, Pop D-E3 replicate 1
  Normalised to DMSO: 99.4191
M-833 0.078125 uM, Pop D-E3 replicate 3
  Normalised to DMSO: 110.5
M-833 0.15625 uM, Pop D-E3 replicate 1
  Normalised to DMSO: 107.328
M-833 0.15625 uM, Pop D-E3 replicate 3
  Normalised to DMSO: 114.438
M-833 0.3125 uM, Pop D-E3 replicate 1
  Normalised to DMSO: 106.122
M-833 0.3125 uM, Pop D-E3 replicate 3
  Normalised to DMSO: 114.625
M-833 0.625 uM, Pop D-E3 replicate 1
  Normalised to DMSO: 101.028
M-833 0.625 uM, Pop D-E3 replicate 3
  Normalised to DMSO: 107.875
M-833 1.25 uM, Pop D-E3 replicate 1
  Normalised to DMSO: 86.6399
M-833 1.25 uM, Pop D-E3 replicate 3
  Normalised to DMSO: 110.688
M-833 2.5 uM, Pop D-E3 replicate 1
  Normalised to DMSO: 72.8552
M-833 2.5 uM, Pop D-E3 replicate 3
  Normalised to DMSO: 90.4375
M-833 5 uM, Pop D-E3 replicate 1
  Normalised to DMSO: 44.37
M-833 5 uM, Pop D-E3 replicate 3
  Normalised to DMSO: 73.375
M-833 10 uM, Pop D-E3 replicate 1
  Normalised to DMSO: 23.9276
M-833 10 uM, Pop D-E3 replicate 3
  Normalised to DMSO: 62.6875
Plasmodium falciparum, M-833 0.0390625 uM, Pop D-E3 replicate 1, read-out: % Inhibition
  inhibition at 0.0390625 µM: -12.4%
Plasmodium falciparum, M-833 0.0390625 uM, Pop D-E3 replicate 3, read-out: % Inhibition
  inhibition at 0.0390625 µM: -11.2%
Plasmodium falciparum, M-833 0.078125 uM, Pop D-E3 replicate 1, read-out: % Inhibition
  inhibition at 0.078125 µM: 0.581%
Plasmodium falciparum, M-833 0.078125 uM, Pop D-E3 replicate 3, read-out: % Inhibition
  inhibition at 0.078125 µM: -10.5%
Plasmodium falciparum, M-833 0.15625 uM, Pop D-E3 replicate 1, read-out: % Inhibition
  inhibition at 0.15625 µM: -7.33%
Plasmodium falciparum, M-833 0.15625 uM, Pop D-E3 replicate 3, read-out: % Inhibition
  inhibition at 0.15625 µM: -14.4%
Plasmodium falciparum, M-833 0.3125 uM, Pop D-E3 replicate 1, read-out: % Inhibition
  inhibition at 0.3125 µM: -6.12%
Plasmodium falciparum, M-833 0.3125 uM, Pop D-E3 replicate 3, read-out: % Inhibition
  inhibition at 0.3125 µM: -14.6%
Plasmodium falciparum, M-833 0.625 uM, Pop D-E3 replicate 1, read-out: % Inhibition
  inhibition at 0.625 µM: -1.03%
Plasmodium falciparum, M-833 0.625 uM, Pop D-E3 replicate 3, read-out: % Inhibition
  inhibition at 0.625 µM: -7.88%
Plasmodium falciparum, M-833 1.25 uM, Pop D-E3 replicate 1, read-out: % Inhibition
  inhibition at 1.25 µM: 13.4%
Plasmodium falciparum, M-833 1.25 uM, Pop D-E3 replicate 3, read-out: % Inhibition
  inhibition at 1.25 µM: -10.7%
Plasmodium falciparum, M-833 2.5 uM, Pop D-E3 replicate 1, read-out: % Inhibition
  inhibition at 2.5 µM: 27.1%
Plasmodium falciparum, M-833 2.5 uM, Pop D-E3 replicate 3, read-out: % Inhibition
  inhibition at 2.5 µM: 9.56%
Plasmodium falciparum, M-833 5 uM, Pop D-E3 replicate 1, read-out: % Inhibition
  inhibition at 5 µM: 55.6%
Plasmodium falciparum, M-833 5 uM, Pop D-E3 replicate 3, read-out: % Inhibition
  inhibition at 5 µM: 26.6%
Plasmodium falciparum, M-833 10 uM, Pop D-E3 replicate 1, read-out: % Inhibition
  inhibition at 10 µM: 76.1%
Plasmodium falciparum, M-833 10 uM, Pop D-E3 replicate 3, read-out: % Inhibition
  inhibition at 10 µM: 37.3%
Plasmodium falciparum, Pop D-E3 replicate 1, M-833 0.0390625 uM
  inhibition at 0.0390625 µM: 2.67%
Plasmodium falciparum, Pop D-E3 replicate 1, M-833 0.078125 uM
  inhibition at 0.078125 µM: -1.86%
Plasmodium falciparum, Pop D-E3 replicate 1, M-833 0.15625 uM
  inhibition at 0.15625 µM: 1.05%
Plasmodium falciparum, Pop D-E3 replicate 1, M-833 0.3125 uM
  inhibition at 0.3125 µM: 2.17%
Plasmodium falciparum, Pop D-E3 replicate 1, M-833 0.625 uM
  inhibition at 0.625 µM: 5.06%
Plasmodium falciparum, Pop D-E3 replicate 1, M-833 1.25 uM
  inhibition at 1.25 µM: 17.9%
Plasmodium falciparum, Pop D-E3 replicate 1, M-833 2.5 uM
  inhibition at 2.5 µM: 29.5%
Plasmodium falciparum, Pop D-E3 replicate 1, M-833 5 uM
  inhibition at 5 µM: 46.7%
Plasmodium falciparum, Pop D-E3 replicate 1, M-833 10 uM
  inhibition at 10 µM: 65.4%
Plasmodium falciparum, read-out: EC50 (95% confidence interval)
  EC50: 3.53 µM
Pop D-E3 replicate 1, M-833 0.0390625 uM
  Normalised to DMSO: 97.3266
Pop D-E3 replicate 1, M-833 0.078125 uM
  Normalised to DMSO: 101.86
Pop D-E3 replicate 1, M-833 0.15625 uM
  Normalised to DMSO: 98.9539
Pop D-E3 replicate 1, M-833 0.3125 uM
  Normalised to DMSO: 97.8303
Pop D-E3 replicate 1, M-833 0.625 uM
  Normalised to DMSO: 94.9438
Pop D-E3 replicate 1, M-833 1.25 uM
  Normalised to DMSO: 82.1
Pop D-E3 replicate 1, M-833 2.5 uM
  Normalised to DMSO: 70.5347
Pop D-E3 replicate 1, M-833 5 uM
  Normalised to DMSO: 53.3127
Pop D-E3 replicate 1, M-833 10 uM
  Normalised to DMSO: 34.6377
